Columns and labels:
Assay in all cases: relative viability (nuclei count vs DMSO), 5 days (fraction); higher = more cells survive
[1] = test system: A-427
How it was run: (§1)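 Relative viability divides the nuclei count in treated wells by that in vehicle wells. Lung cancer cell lines were seeded in 1536-well plates, dosed by pin tool the next day, and fixed and stained after 5 days in one step with final 0.05% Triton X-100, 1% formaldehyde and 1 ug/ml Hoechst. Dosing was a single drug or a fixed anchor-drug dose plus five library-drug doses (not always all listed) in √10 steps, and values are medians of duplicate plates imaged at 4×.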

[2] = test system: COR-L 105
How it was run: as §1

[3] = test system: ChaGo-K-1
How it was run: as §1

[4] = test system: EKVX
How it was run: as §1

[5] = test system: EMC-BAC-2
How it was run: as §1

[6] = test system: H3255
How it was run: as §1

[7] = test system: HCC-366
How it was run: as §1

[8] = test system: LK-2
How it was run: as §1

[9] = test system: LOU-NH91
How it was run: as §1

[10] = test system: NCI-H1563
How it was run: as §1

[11] = test system: NCI-H1666
How it was run: as §1

[12] = test system: NCI-H1734
How it was run: as §1

[13] = test system: NCI-H1755
How it was run: as §1

[14] = test system: NCI-H1975
How it was run: as §1

[15] = test system: NCI-H2170
How it was run: as §1

[16] = test system: NCI-H23
How it was run: as §1

[17] = test system: NCI-H441
How it was run: as §1

[18] = test system: NCI-H520
How it was run: as §1

[19] = test system: NCI-H596
How it was run: as §1

[20] = test system: PC-3 [JPC-3]
How it was run: as §1

[21] = test system: SK-MES-1
How it was run: as §1

[22] = test system: SW 900
How it was run: as §1

Work on `Cc1sc2c(c1C)C(c1ccc(Cl)cc1)=N[C@@H](CC(=O)OC(C)(C)C)c1nnc(C)n1-2` [JQ1] + COc1cc2c(Oc3ccc(NC(=O)C4(C(=O)Nc5ccc(F)cc5)CC4)cc3F)ccnc2cc1OCCCN1CCOCC1 [Foretinib] (partner 0.25 µM) yielded a relative viability ([1]; first compound 0.04 µM) of 1.01, a relative viability ([1]; first compound 0.1265 µM) of 0.988 and a relative viability ([1]; first compound 0.4 µM) of 0.913. The relative viability ([1]; first compound 1.265 µM) was 0.908, the relative viability ([1]; first compound 4 µM) was 0.636 and the relative viability ([2]; first compound 0.04 µM) was 0.794. It also gave a relative viability ([2]; first compound 0.1265 µM) of 0.604, a relative viability ([2]; first compound 0.4 µM) of 0.656 and a relative viability ([2]; first compound 1.265 µM) of 0.219. The relative viability ([2]; first compound 4 µM) was 0.272, the relative viability ([3]; first compound 0.04 µM) was 0.95 and the relative viability ([3]; first compound 0.1265 µM) was 0.827. It also gave a relative viability ([3]; first compound 0.4 µM) of 0.929, a relative viability ([3]; first compound 1.265 µM) of 0.7 and a relative viability ([3]; first compound 4 µM) of 0.583. For the same compound, the relative viability ([4]; first compound 0.04 µM) was 0.881, the relative viability ([4]; first compound 0.1265 µM) was 0.448 and the relative viability ([4]; first compound 0.4 µM) was 0.787. The relative viability ([4]; first compound 1.265 µM) was 0.655, the relative viability ([4]; first compound 4 µM) was 0.512 and the relative viability ([5]; first compound 0.04 µM) was 1.04. The relative viability ([5]; first compound 0.1265 µM) was 0.868, the relative viability ([5]; first compound 0.4 µM) was 0.584 and the relative viability ([5]; first compound 1.265 µM) was 0.376. The relative viability ([5]; first compound 4 µM) was 0.556, the relative viability ([6]; first compound 0.04 µM) was 0.78 and the relative viability ([6]; first compound 0.1265 µM) was 0.884. It also gave a relative viability ([6]; first compound 0.4 µM) of 0.987, a relative viability ([6]; first compound 1.265 µM) of 0.793 and a relative viability ([6]; first compound 4 µM) of 0.442. It also gave a relative viability ([7]; first compound 0.04 µM) of 0.994, a relative viability ([7]; first compound 0.4 µM) of 0.827 and a relative viability ([7]; first compound 1.265 µM) of 0.359. It also gave a relative viability ([7]; first compound 4 µM) of 0.266, a relative viability ([8]; first compound 0.04 µM) of 1.21 and a relative viability ([8]; first compound 0.1265 µM) of 1.04. The relative viability ([8]; first compound 0.4 µM) was 0.325, the relative viability ([8]; first compound 1.265 µM) was 0.226 and the relative viability ([8]; first compound 4 µM) was 0.221. For the same compound, the relative viability ([9]; first compound 0.04 µM) was 0.944, the relative viability ([9]; first compound 0.1265 µM) was 0.777 and the relative viability ([9]; first compound 0.4 µM) was 0.618. The relative viability ([9]; first compound 1.265 µM) was 0.625, the relative viability ([9]; first compound 4 µM) was 0.482 and the relative viability ([10]; first compound 0.04 µM) was 0.96. The relative viability ([10]; first compound 0.1265 µM) was 0.733, the relative viability ([10]; first compound 0.4 µM) was 0.756 and the relative viability ([10]; first compound 1.265 µM) was 0.681. It also gave a relative viability ([10]; first compound 4 µM) of 0.692, a relative viability ([11]; first compound 0.04 µM) of 0.855 and a relative viability ([11]; first compound 0.1265 µM) of 0.924. The relative viability ([11]; first compound 0.4 µM) was 0.818, the relative viability ([11]; first compound 1.265 µM) was 0.634 and the relative viability ([11]; first compound 4 µM) was 0.653. For the same compound, the relative viability ([12]; first compound 0.04 µM) was 0.963, the relative viability ([12]; first compound 0.1265 µM) was 0.834 and the relative viability ([12]; first compound 0.4 µM) was 0.872. For the same compound, the relative viability ([12]; first compound 1.265 µM) was 0.499, the relative viability ([12]; first compound 4 µM) was 0.531 and the relative viability ([13]; first compound 0.04 µM) was 0.896. It also gave a relative viability ([13]; first compound 0.1265 µM) of 0.831, a relative viability ([13]; first compound 0.4 µM) of 0.945 and a relative viability ([13]; first compound 1.265 µM) of 0.793. It also gave a relative viability ([13]; first compound 4 µM) of 0.634, a relative viability ([14]; first compound 0.04 µM) of 0.916 and a relative viability ([14]; first compound 0.1265 µM) of 0.731. It also gave a relative viability ([14]; first compound 0.4 µM) of 0.713, a relative viability ([14]; first compound 1.265 µM) of 0.541 and a relative viability ([14]; first compound 4 µM) of 0.353. The relative viability ([15]; first compound 0.04 µM) was 1.03, the relative viability ([15]; first compound 0.1265 µM) was 0.928 and the relative viability ([15]; first compound 0.4 µM) was 0.837. The relative viability ([15]; first compound 1.265 µM) was 0.762, the relative viability ([15]; first compound 4 µM) was 0.626 and the relative viability ([16]; first compound 0.04 µM) was 0.986. The relative viability ([16]; first compound 0.1265 µM) was 0.772, the relative viability ([16]; first compound 0.4 µM) was 0.546 and the relative viability ([16]; first compound 1.265 µM) was 0.558. For the same compound, the relative viability ([16]; first compound 4 µM) was 0.297, the relative viability ([17]; first compound 0.04 µM) was 1.08 and the relative viability ([17]; first compound 0.1265 µM) was 0.981. For the same compound, the relative viability ([17]; first compound 0.4 µM) was 0.842, the relative viability ([17]; first compound 1.265 µM) was 0.832 and the relative viability ([17]; first compound 4 µM) was 0.57. For the same compound, the relative viability ([18]; first compound 0.04 µM) was 0.732, the relative viability ([18]; first compound 0.1265 µM) was 0.793 and the relative viability ([18]; first compound 0.4 µM) was 0.81. The relative viability ([18]; first compound 1.265 µM) was 0.35, the relative viability ([18]; first compound 4 µM) was 0.277 and the relative viability ([19]; first compound 0.04 µM) was 0.951. The relative viability ([19]; first compound 0.1265 µM) was 0.61, the relative viability ([19]; first compound 0.4 µM) was 0.466 and the relative viability ([19]; first compound 1.265 µM) was 0.322. For the same compound, the relative viability ([19]; first compound 4 µM) was 0.225, the relative viability ([20]; first compound 0.04 µM) was 1.06 and the relative viability ([20]; first compound 0.1265 µM) was 1.05. For the same compound, the relative viability ([20]; first compound 0.4 µM) was 0.75, the relative viability ([20]; first compound 1.265 µM) was 0.74 and the relative viability ([20]; first compound 4 µM) was 0.48. The relative viability ([21]; first compound 0.04 µM) was 0.817, the relative viability ([21]; first compound 0.1265 µM) was 0.642 and the relative viability ([21]; first compound 0.4 µM) was 0.675. It also gave a relative viability ([21]; first compound 1.265 µM) of 0.359, a relative viability ([21]; first compound 4 µM) of 0.333 and a relative viability ([22]; first compound 0.04 µM) of 0.699. The relative viability ([22]; first compound 0.1265 µM) was 1.06, the relative viability ([22]; first compound 0.4 µM) was 0.377 and the relative viability ([22]; first compound 1.265 µM) was 0.224. For the same compound, the relative viability ([22]; first compound 4 µM) was 0.188.
